Data as given in patent publication US20080200454A1, “CARBON-LINKED TETRAHYDRO-PYRAZOLO-PYRIDINE MODULATORS OF CATHEPSIN S” (priority 2007, published 2008).

Target: Recombinant human cathepsin S (CatS) (Homo sapiens, UniProt P25774)
Experiment: Recombinant human cathepsin S (CatS) inhibition assay, fluorogenic substrate Z-Valine-Valine-Arginine-AMC;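 also: Baculovirus-expressed CatS in pH 5.0 sodium acetate buffer with DTT and NaCl, fluorescence read each minute over 20 min, inhibition derived from rate slope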
Conditions: not given

Chain of Recombinant human cathepsin S (CatS) (P25774 115-331): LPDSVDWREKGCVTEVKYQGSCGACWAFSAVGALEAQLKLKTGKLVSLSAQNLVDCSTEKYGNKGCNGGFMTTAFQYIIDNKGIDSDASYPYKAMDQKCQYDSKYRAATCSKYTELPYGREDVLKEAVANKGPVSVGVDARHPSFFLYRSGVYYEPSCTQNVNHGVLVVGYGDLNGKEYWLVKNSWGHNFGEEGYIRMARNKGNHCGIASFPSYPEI

SMILES | IC50 [nM]
CS(=O)(=O)N1CCc2c(c(-c3ccc(Cl)c(CCCNS(=O)(=O)c4ccccc4Cl)c3)nn2CCCN2CCC(N3CCCC3=O)CC2)C1 [Example 95, 2-Chloro-N-{3-[2-chloro-5-(5-methanesulfonyl-1-{3-[4-(2-oxo-pyrrolidin-1-yl)-piperidin-1-yl]-propyl}-4,5,6,7-tetrahydro-1H-pyrazolo[4,3-c]pyridin-3-yl)-phenyl]-propyl}-benzenesulfonamide] | 1150
CS(=O)(=O)N1CCc2c(c(-c3ccc(Cl)c(C#Cc4cccc5c4CNCC5)c3)nn2CCCN2CCOCC2)C1 [Example 366, 8-({2-Chloro-5-[5-(methylsulfonyl)-1-(3-morpholin-4-ylpropyl)-4,5,6,7-tetrahydro-1H-pyrazolo[4,3-c]pyridin-3-yl]phenyl}ethynyl)-1,2,3,4-tetrahydroisoquinoline] | 680
CS(=O)(=O)N1CCc2c(c(-c3ccc(Cl)c(C#Cc4ccc(CNC5CCCc6ccccc65)cc4)c3)nn2CCCN2CCN(c3ccccn3)CC2)C1 (stereo in doubt) [Example 215, (1R)—N-({4-[(2-Chloro-5-{5-(methylsulfonyl)-1-[3-(4-pyridin-2-ylpiperazin-1-yl)propyl]-4,5,6,7-tetrahydro-1H-pyrazolo[4,3-c]pyridin-3-yl}phenyl)ethynyl]phenyl}methyl)-1,2,3,4-tetrahydronaphthalen-1-amine] | 30
COC(=O)C1COCCN1CCCn1nc(-c2ccc(Cl)c(C#Cc3ccc(CNCc4ccc(Cl)cc4)cc3)c2)c2c1CCN(S(C)(=O)=O)C2 (centres unmarked) [Example 418, Methyl 4-{3-[3-(4-chloro-3-{[4-({[(4-chlorophenyl)methyl]amino}methyl)phenyl]ethynyl}phenyl)-5-(methylsulfonyl)-4,5,6,7-tetrahydro-1H-pyrazolo[4,3-c]pyridin-1-yl]propyl}morpholine-3-carboxylate] | 1030
CCN(CC)CC#Cc1cc(-c2nn(C[C@@H](O)CN3CCC(C4CCN(C(=O)OC(C)(C)C)CC4)CC3)c3c2CN(S(C)(=O)=O)CC3)ccc1Cl [Example 236, 1,1-Dimethylethyl 1′-{(2S)-3-[3-{4-chloro-3-[3-(diethylamino)prop-1-yn-1-yl]phenyl}-5-(methylsulfonyl)-4,5,6,7-tetrahydro-1H-pyrazolo[4,3-c]pyridin-1-yl]-2-hydroxypropyl}-4,4′-bipiperidine-1-carboxylate] | 7130
CN1CCC(C2CCN(C[C@H](O)Cn3nc(-c4ccc(Cl)c(C#Cc5ccc(Cl)cc5)c4)c4c3CCN(S(C)(=O)=O)C4)CC2)CC1 [Example 240, (2S)-1-[3-{4-Chloro-3-[(4-chlorophenyl)ethynyl]phenyl}-5-(methylsulfonyl)-4,5,6,7-tetrahydro-1H-pyrazolo[4,3-c]pyridin-1-yl]-3-(1′-methyl-4,4′-bipiperidin-1-yl)propan-2-ol] | 10
NC(=O)N1CCc2c(c(-c3ccc(Cl)c(C#Cc4ccc(CNCc5ccc(Cl)cc5)cc4)c3)nn2CCCN2CCN(c3ccccc3)CC2)C1 [Example 430, 3-(4-Chloro-3-{[4-({[(4-chlorophenyl)methyl]amino}methyl)phenyl]ethynyl}phenyl)-1-[3-(4-phenylpiperazin-1-yl)propyl]-1,4,6,7-tetrahydro-5H-pyrazolo[4,3-c]pyridine-5-carboxamide] | 40
NC(=O)C(=O)N1CCc2c(c(-c3ccc(Cl)c(C#Cc4ccc(Cl)c(C(=O)NCCCO)c4)c3)nn2CCCN2CCSCC2)C1 [Example 554, 5-[(5-{5-[Amino(oxo)acetyl]-1-(3-thiomorpholin-4-ylpropyl)-4,5,6,7-tetrahydro-1H-pyrazolo[4,3-c]pyridin-3-yl}-2-chlorophenyl)ethynyl]-2-chloro-N-(3-hydroxypropyl)benzamide] | 20
CCNCc1cc(C#Cc2cc(-c3nn(CCCN4CCCCC4)c4c3CN(S(C)(=O)=O)CC4)ccc2Cl)ccc1Cl [Example 594, N-[2-Chloro-5-({2-chloro-5-[5-(methylsulfonyl)-1-(3-piperidin-1-ylpropyl)-4,5,6,7-tetrahydro-1H-pyrazolo[4,3-c]pyridin-3-yl]phenyl}ethynyl)benzyl]ethanamine] | 30
NC(=O)N1CCc2c(c(-c3ccc(Cl)c(C#Cc4ccc(CNCc5ccc(Cl)cc5)cc4)c3)nn2CCCN2CCN(c3cccc[n+]3[O-])CC2)C1 [Example 454, 3-(4-Chloro-3-{[4-({[(4-chlorophenyl)methyl]amino}methyl)phenyl]ethynyl}phenyl)-1-{3-[4-(1-oxidopyridin-2-yl)piperazin-1-yl]propyl}-1,4,6,7-tetrahydro-5H-pyrazolo[4,3-c]pyridine-5-carboxamide] | 40
CS(=O)(=O)N1CCc2c(c(-c3ccc(Cl)c(CCCCO)c3)nn2CCCN2CCOCC2)C1 [Example 300, 4-{2-Chloro-5-[5-(methylsulfonyl)-1-(3-morpholin-4-ylpropyl)-4,5,6,7-tetrahydro-1H-pyrazolo[4,3-c]pyridin-3-yl]phenyl}butan-1-ol] | 9200
CS(=O)(=O)N1CCc2c(c(-c3ccc(C(F)(F)F)c(CCc4ccc(Cl)cc4)c3)nn2CC(O)CN2CCOCC2)C1 (centres unmarked) [Example 147, 1-(3-{3-[2-(4-Chloro-phenyl)-ethyl]-4-trifluoromethyl-phenyl}-5-methanesulfonyl-4,5,6,7-tetrahydro-pyrazolo[4,3-c]pyridin-1-yl)-3-morpholin-4-yl-propan-2-ol] | 410
O=C(N1CCOCC1)N1CCc2c(c(-c3ccc(Cl)c(C#Cc4ccc(CNCc5ccc(Cl)cc5)cc4)c3)nn2CCCN2CCOCC2)C1 [Example 497, 1-[4-({2-Chloro-5-[5-(morpholin-4-ylcarbonyl)-1-(3-morpholin-4-ylpropyl)-4,5,6,7-tetrahydro-1H-pyrazolo[4,3-c]pyridin-3-yl]phenyl}ethynyl)phenyl]-N-[(4-chlorophenyl)methyl]methanamine] | 1630
NC(=O)N1CCc2c(c(-c3ccc(Cl)c(C#Cc4ccc(CNCc5ccc(Cl)cc5)cc4)c3)nn2CCCN2CCSCC2)C1 [Example 160, 3-(4-Chloro-3-{[4-({[(4-chlorophenyl)methyl]amino}methyl)phenyl]ethynyl}phenyl)-1-(3-thiomorpholin-4-ylpropyl)-1,4,6,7-tetrahydro-5H-pyrazolo[4,3-c]pyridine-5-carboxamide] | 60

Same assay, conditions: CatS IC50

SMILES | IC50 [nM]
CC1COCCN1CCCn1nc(-c2ccc(Cl)c(C#Cc3ccc(Cl)c(CNCc4ccccc4)c3)c2)c2c1CCN(C(N)=O)C2 (stereo in doubt) [Example 224, 3-{4-Chloro-3-[(4-chloro-3-{[(phenylmethyl)amino]methyl}phenyl)ethynyl]phenyl}-1-{3-[(3S)-3-methylmorpholin-4-yl]propyl}-1,4,6,7-tetrahydro-5H-pyrazolo[4,3-c]pyridine-5-carboxamide] | 20
CS(=O)(=O)N1CCc2c(c(-c3ccc(Cl)c(C#Cc4ccccn4)c3)nn2C[C@@H](O)CN2CCC(C3CCNCC3)CC2)C1 [Example 473, (2S)-1-(4,4′-Bipiperidin-1-yl)-3-{3-[4-chloro-3-(pyridin-2-ylethynyl)phenyl]-5-(methylsulfonyl)-4,5,6,7-tetrahydro-1H-pyrazolo[4,3-c]pyridin-1-yl}propan-2-ol] | 120
NC(=O)N1CCc2c(c(-c3ccc(Cl)c(C#Cc4ccc(CN[C@@H]5CCCc6ccccc65)cc4)c3)nn2CCCN2CCOCC2)C1 [Example 477, 3-{4-Chloro-3-[(4-{[(1R)-1,2,3,4-tetrahydronaphthalen-1-ylamino]methyl}phenyl)ethynyl]phenyl}-1-(3-morpholin-4-ylpropyl)-1,4,6,7-tetrahydro-5H-pyrazolo[4,3-c]pyridine-5-carboxamide] | 100
Cc1ccc(C#Cc2cc(-c3nn(CCCN4CCOCC4)c4c3CN(S(C)(=O)=O)CC4)ccc2Cl)cc1 [Example 29, 3-(4-Chloro-3-p-tolylethynyl-phenyl)-5-methanesulfonyl-1-(3-morpholin-4-yl-propyl)-4,5,6,7-tetrahydro-1H-pyrazolo[4,3-c]pyridine] | 280
C[C@H]1COCCN1CCCn1nc(-c2ccc(Cl)c(C#Cc3ccc(Cl)c(CNCc4ccccc4)c3)c2)c2c1CCN(S(C)(=O)=O)C2 [Example 286, 1-[2-Chloro-5-({2-chloro-5-[1-{3-[(3S)-3-methylmorpholin-4-yl]propyl}-5-(methylsulfonyl)-4,5,6,7-tetrahydro-1H-pyrazolo[4,3-c]pyridin-3-yl]phenyl}ethynyl)phenyl]-N-(phenylmethyl)methanamine] | 30
C[C@H]1COCCN1CCCn1nc(-c2ccc(Cl)c(C#Cc3ccc(Cl)c(C(=O)N4CCCNCC4)c3)c2)c2c1CCN(C(=O)C(N)=O)C2 [Example 575, 2-[3-(4-Chloro-3-{[4-chloro-3-(1,4-diazepan-1-ylcarbonyl)phenyl]ethynyl}phenyl)-1-{3-[(3S)-3-methylmorpholin-4-yl]propyl}-1,4,6,7-tetrahydro-5H-pyrazolo[4,3-c]pyridin-5-yl]-2-oxoacetamide] | 170
C[C@H]1COCCN1CCCn1nc(-c2ccc(Cl)c(C#Cc3ccc(Cl)c(C(=O)NCCCN(C)C(=O)OC(C)(C)C)c3)c2)c2c1CCN(C(=O)C(N)=O)C2 [Example 576, tert-Butyl (3-{[(5-{[5-(5-[amino(oxo)acetyl]-1-{3-[(3S)-3-methylmorpholin-4-yl]propyl}-4,5,6,7-tetrahydro-1H-pyrazolo[4,3-c]pyridin-3-yl)-2-chlorophenyl]ethynyl}-2-chlorophenyl)carbonyl]amino}propyl)methylcarbamate] | 50
NC(=O)N1CCc2c(c(-c3ccc(Cl)c(C#Cc4ccc(Cl)c(CNC5CC5)c4)c3)nn2CCCN2CCCCC2)C1 [Example 596, 3-[4-Chloro-3-({4-chloro-3-[(cyclopropylamino)methyl]phenyl}ethynyl)phenyl]-1-(3-piperidin-1-ylpropyl)-1,4,6,7-tetrahydro-5H-pyrazolo[4,3-c]pyridine-5-carboxamide] | 30

Same assay, conditions: CatS IC50, Table 2; average of results obtained

SMILES | IC50 [nM]
CS(=O)(=O)N1CCc2c(c(-c3ccc(Cl)c(C#Cc4ccsc4)c3)nn2CCCN2CCOCC2)C1 [Example 23, 3-(4-Chloro-3-thiophen-3-ylethynyl-phenyl)-5-methanesulfonyl-1-(3-morpholin-4-yl-propyl)-4,5,6,7-tetrahydro-1H-pyrazolo[4,3-c]pyridine] | 1440
